Source: patent publication US10828379B2, “In vivo differentiation of relative oxygen levels and tumor necrosis using divalent europium” (WAYNE STATE UNIVERSITY, priority 2015, dated 2020)

Assays:
4T1 mammary carcinoma = assay: In vivo T1-weighted MRI after intratumoral injection, with histological staining; parameters: species or system mouse; settings: bladder, liver, kidneys; Gd control 50 μL, 20.5 mM
Procedure: To test whether Eu^II-222Fb would enhance contrast in necrotic tissue, we performed T1-weighted MRI before and after intratumoral injection of Eu^II-222Fb (50 μL, 19.4 mM) into a 4T1 mammary carcinoma. The 4T1 carcinoma model is an aggressive tumor that typically develops a necrotic core,^[10] and imaging was performed when tumors reached approximately 700-1000 mg to maximize the probability of necrosis. Images were acquired before and at 3, 20, and 120 min after intratumoral injection (FIG. 3A-D). […]
To better understand the potential mechanism of differentiation, we performed an intratumoral injection of Eu^II-222Fb (50 μL, 6.9 mM) and monitored contrast enhancement over the course of 3 h before sacrificing the mouse and removing the injected tumor for analysis of Eu content by inductively coupled plasma mass spectrometry. […]
Studies in animals were carried out with the assistance of the Animal Model and Therapeutics Evaluation Core of the Barbara Ann Karmanos Cancer Institute after approval from the Wayne State University Institutional Animal Care and Use Committee. […] Animals were pooled, implanted bilaterally subcutaneously with 30-60 mg tumor fragments with a 12 gauge trocar, and imaged when tumors reached approximately 700-1000 mg in size (determined by caliper measurements: tumor mass (mg)≈[tumor length (mm)×tumor width^2 (mm^2)]/2). […]

[1] = In vivo T1-weighted MRI after intravenous, intraperitoneal and subcutaneous injection; parameters: species or system mouse; settings: liver, kidneys, bladder; equivalent dose for Gd control
Procedure: To test our hypothesis regarding the in vivo response of Eu^II-222, we acquired T1-weighted images of mice after administering Eu^II-222 (0.1 mL, 4 mM, europium dose of 3 mg/kg) through intravenous, intraperitoneal, and subcutaneous injections (FIG. 8). Mice were imaged prior to injection and at 3 and 8 min to compare responses with the three injection types. […] Although this observation is inconsistent with the low oxygen content of venous blood (relative to the peritoneal cavity), the circulation time of blood in a mouse is approximately 8 s (38). […] Therefore, the exchange between venous and arterial blood during circulation can explain our observations.
Studies in animals were carried out with the assistance of the Animal Model and Therapeutics Evaluation Core of the Barbara Ann Karmanos Cancer Institute after approval from the Wayne State University Institutional Animal Care and Use Committee. MRI scans were performed in the Elliman Clinical Research Building at Wayne State University with a 7 T Bruker Clinscan small animal MRI scanner equipped with a 30 cm bore. […]
For intravenous injections, mice were catheterized before being anesthetized with isoflurane. […] A correction volume (0.08 mL) was added to the calculated dose volumes for intravenous injections to account for the volume of the phosphate-buffered saline within the catheter. […]

| Compound | contrast enhancement in organs associated with clearance after intratumoral injection (4T1 mammary carcinoma) | contrast enhancement in organs associated with clearance after intravenous injection [1] |
| --- | --- | --- |
| Gd^III-1,4,7,10-tetraazacyclododecane-1,4,7,10-tetraacetate | bright with contrast within minutes of the injection |  |
| O=C([O-])CN(CCN(CC(=O)[O-])CC(=O)[O-])CCN(CC(=O)[O-])CC(=O)[O-].[Gd+3] [Gd^III-diethylenetriaminepentaacetate] |  | positive contrast enhancement was observed in the kidneys within 3 min |
